From article PMC12308784, “Organometallic Half-Sandwich Complexes of 1,10-Phenanthroline Derivatives with Improved Solubility, Albumin-Binding, and Nanoformulation Potential Targeting Drug Resistance in Cancer” (Inorganic Chemistry, 2025)

Experiment: time-dependent stability in PBS’ by UV–vis and 1H NMR
Assay type: physicochemical
Conditions: pH 7.4, 100 mM chloride
Description: As a first step, time-dependent stability measurements were conducted by UV–visible (UV–vis) for all the metal complexes (Figure S13), focusing on their stability in a modified phosphate buffer saline (PBS’) medium to mimic conditions relevant to intravenous applications regarding the pH (7.4) and the chloride ion concentration (100 mM). […] Unfortunately, determining the equilibrium constants for direct complex formation was not possible due to the poor solubility of the ligands in water. […] The robust stability of the analogous IrCp* complexes was also reported.
Figure S14. Time-dependent UV -Vis spectra of metal complexes (a) cRuCymBP = 69 µM; (b) cRhCp*BP =
66 µM; (c) cRuCymDCP = 99 µM; (d) cRhCp*DCP = 85 µM) in PBS' buffer over 24 h (a-d). Spectra were recorded
Figure S15. Time-dependent 1H NMR spectra of metal complex RhCp*BP (66 µM) at pH 7.40 over 5 days.
{10% (v/v) D2O / 90% (v/v) H2O; PBS’; t = 25 °C} […]

stability in PBS’ over 24 h: no changes
Substance: [Rh(III)(η^5-C5Me5)(bathophenanthroline)Cl]Cl [RhCp*BP]
